# Laboratory results taken from patent publication US20240398829A1, “A COBALT-[…] AMINO ACID COMPLEX AND ITS USE FOR TREATING CANCER” (AMELIO BIOTECH CO., LTD., priority 2021, published 2024).
# Where “and” joins values, the source holds several entries; their conditions need not be identical. Identical values can stand only once.
# How the values were obtained:
# [1] = system: ccne1, cdk1, cdk2, myca, mycb, ccnd1; experiment: qPCR of cell proliferation markers and beta-catenin downstream target genes in tert transgenic zebrafish; format: in vivo, zebrafish (Danio rerio); details: 0.5×(50 μM), 15 dpf, vs untreated
# Protocol: (§1) 50 zebrafish larva were placed in a fish tank with 800 ml of system water, the water were refreshed every day at 4 pm. From day 5 to day 15, AB(WT) and tert transgenic zebrafish were fed with normal larva food, plus 20 ml of Paramecium, and there must be 2 hours between meals, four meals a day. The last meal must be fed after 1 hour before the water changed. […] The fish were fasting for one days before collecting the samples for RNA extraction and hematoxylin-eosin (H&E) staining.
# Total RNA was isolated by NucleoSpin® RNA kit ([…]-NAGEL, USA). […]
# The resulting first-strand cDNA was used as a template for […] PCR in triplicate by using the SYBR Green Q-PCR Master Mix Kit (Applied Biosystems) using an ABI PRISM 7900 System. After normalization to internal control actin, the expression ratio between the experimental and control groups was calculated using the comparative Ct method. The relative expression ratio (fold change) was calculated based on ΔΔCt, ΔΔCt=(Cttarget−Ctactin)treatment−(Cttarget−Ctactin)control, and fold change=2^−ΔΔ^Ct. […] At least three independent samples were used for Q-PCR, and the standard error was calculated and incorporated into the presented data as […]±standard error. Differences among variables were assessed by a two-tailed Student's t test. […]
# [2] = system: tert transgenic zebrafish; experiment: H&E staining of liver cells of tert transgenic zebrafish; format: in vivo, zebrafish (Danio rerio); details: 15 dpf
# Protocol: as §1
# After 1 month of RO injection, the fish was sacrificed, and the liver was taken out and divided into two parts for RNA isolation and paraffin section. The liver tissues were frozen in liquid nitrogen immediately after sectioning and stored at −80° C. for later RNA isolation. For histochemistry analysis, liver tissues were fixed in a 10% formalin solution (Sigma-Aldrich Inc., St. Louis, MO, USA). The fixed tissue was embedded in paraffin, and sectioned at 5-μm thickness mounted on poly-L-lysine coated slides, and the sections were stained with hematoxylin and eosin (H&E stain), which this part was performed by the Pathology core facility.
# H&E staining is mainly to observe the states of mitotic figures, […] cells, and macronucleated cells that represent hepatocyte undergoes carcinogenesis.
# [3] = system: Hep3B hepatoma cells; experiment: Xenotransplantation assay of cell proliferation in zebrafish embryos; format: in vivo, human; details: two days, zebrafish embryo xenotransplant
# [4] = system: A375 cells; experiment: Cell proliferation assay I (PrestoBlue), A375; format: cell-based, human; details: 72 h; for A375 cell survival (%): vs control without drug
# Protocol: (§2) U-87 MG cells (a human primary glioblastoma cell line) were cultured in MEM medium (Gibco, New York, NY, USA). A375 cells (a human melanoma cell line) and Huh7 cells (a human hepatocellular carcinoma (HCC) cell line) were cultured in DMEM medium (HyClone, Logan, UT, USA). The culture media were supplemented with 10% heat-inactivated fetal bovine serum (FBS), 1% penicillin/streptomycin and 1% […] (HyClone, Logan, UT, USA). Cells were seeded in 96-well plates at a density of 2000 cells/well. Then, cells were transferred to 37° C. incubator. […] At the end of incubation, the PrestoBlue™ Cell Viability Reagent (Invitrogen, Eugene, OR, USA) was distributed to cells. The plates were incubated for 90 min at 37° C. in a humidified, 5% CO2 atmosphere and the fluorescence was then recorded at Ex/Em: 560 nm/590 nm. Triplicate experiments were performed.
# [5] = system: Huh7 cells; experiment: Cell proliferation assay I (PrestoBlue), Huh7; format: cell-based, human; details: 72 h; for Huh7 cell survival (%): vs control without drug
# Protocol: as §2
# [6] = system: U-87 MG cells; experiment: Cell proliferation assay I (PrestoBlue), U-87 MG; format: cell-based, human; details: 72 h; for U-87 MG cell survival (%): vs control without drug
# Protocol: as §2
# [7] = system: A375; experiment: Cell proliferation assay II (MTS), A375; format: cell-based, human; details: A375, 72 h, mean ± SD
# Protocol: (§3) Human lung cancer cell line NCI-H226 was purchased from the American type culture collection (CRL-5826). NCI-H226 was grown in RPMI supplemented with 10% FBS in a humidified atmosphere containing 5% CO2 at 37° C. Human melanoma cell line A375, human pharynx squamous cell carcinoma FaDu, human cervical epithelioid carcinoma HeLa and human chronic myelogenous leukemia K-562 were purchased from Bioresource Collection and Research Center (BCRC), Hsinchu 300, Taiwan. A375 cells were grown in DMEM supplemented with 10% FBS in a humidified atmosphere 5% CO2 at 37° C. FaDu cells were grown in DMEM supplemented with 10% FBS in a humidified atmosphere 5% CO2 at 37° C. HeLa cell were grown in DMEM supplemented with 10% FBS in a humidified atmosphere 5% CO2 at 37° C. […]
# (§4) MTS/PMS solution was freshly prepared and added (20 μl per well) into each well of 96-well cultured plate. The assay plate was incubated for 3 hours at 37° C., 5% CO2, under humidified atmosphere, and measured the absorbance at 490 nm using Multiskan™ GO Microplate Spectrophotometer (Thermo Fisher Scientific).
# (§5) Corrected absorbance values were obtained by subtracting the average 490 nm absorbance of the negative control wells (medium only, no cell, as background control) from all other absorbance values. Percentage inhibition of cell growth for compound treatment was calculated using this formula: […]
# [8] = system: FaDu; experiment: Cell proliferation assay II (MTS), FaDu; format: cell-based, human; details: 72 h, mean ± SD
# Protocol: as §3, §4, §5
# [9] = system: HeLa; experiment: Cell proliferation assay II (MTS), HeLa; format: cell-based, human; details: 72 h, mean ± SD
# Protocol: as §3, §4, §5
# [10] = system: K-562; experiment: Cell proliferation assay II (MTS), K-562; format: cell-based, human; details: K-562, 72 h, mean ± SD
# Protocol: as §3, §4, §5
# [11] = system: NCI-H226; experiment: Cell proliferation assay II (MTS), NCI-H226; format: cell-based, human; details: NCI-H226, 72 h, mean ± SD
# Protocol: as §3, §4, §5
# [12] = system: U87; experiment: Cell proliferation assay II (MTS), U87; format: cell-based, human; details: U87, 72 h, mean ± SD
# Protocol: as §3, §4, §5
# [13] = system: zebrafish liver; experiment: Hepatoxicity assay in Tg(fabp10a:EGFP-mCherry) embryos; details: 10 μM, embryos treated from 3 dpf
# Protocol: About 3 dpf, 50 embryos were distributed into 10 ml chemical solution/well (chemical/E3 solution) in 6-well plates until 5 dpf and new chemical solution was replaced every day. At 5 dpf, embryos were anesthetized with tricaine (0.016%) and the images of 8 to 10 embryos randomly per well were taken by ZEISS AxioCam MRc. There are three different images which one with auto exposure-time for the clearest view, one with fixed exposure-time to capture RFP (red fluorescent protein) intensity below saturation for intensity measurement and comparison, and the last one with sufficient exposure-time to show the whole liver region for size measurement. Image J software was then used to quantify intensity of RFP and liver size. Average RFP intensity in the liver was calculated and compared within the same group of lateral view fry under the same magnification and fixed exposure-time.
# Images were analyzed by Image J software.
compound,measurement,setting,value
cobalt-containing glutamic acid (COGA) complex,"expression of cell proliferation markers (ccne1, cdk1, cdk2) and beta-catenin downstream target genes (myca, mycb, ccnd1)",[1],significantly reduced
same,"number of mitotic figures, trinucleated cells, and macronucleated cells",[2],significantly reduced
same,hepatoma cell proliferation compared to the DMSO treatment,[3]; 0.5×(50 μM),significantly reduced
same,hepatoma cell proliferation compared to the DMSO treatment,[3]; 1×(100 μM),significantly reduced
same,A375 cell survival (%),[4]; 5 nM,110% and 104% and 105%
same,A375 cell survival (%),[4]; 14 nM,89% and 87% and 85%
same,A375 cell survival (%),[4]; 41 nM,74% and 71% and 68%
same,A375 cell survival (%),[4]; 123 nM,72% and 69% and 67%
same,A375 cell survival (%),[4]; 370 nM,69% and 68% and 62%
same,A375 cell survival (%),[4]; 1111 nM,70% and 71% and 67%
same,A375 cell survival (%),[4]; 3333 nM,77% and 76% and 72%
same,A375 cell survival (%),[4]; 10000 nM,89% and 88% and 84%
same,IC50,[4]; A375 cells,0.0687 ± 0.0158 µM
same,Huh7 cell survival (%),[5]; 5 nM,102% and 107% and 100%
same,Huh7 cell survival (%),[5]; 14 nM,88% and 92% and 84%
same,Huh7 cell survival (%),[5]; 41 nM,78% and 80% and 72%
same,Huh7 cell survival (%),[5]; 123 nM,73% and 77% and 71%
same,Huh7 cell survival (%),[5]; 370 nM,74% and 75% and 69%
same,Huh7 cell survival (%),[5]; 1111 nM,82% and 79% and 73%
same,Huh7 cell survival (%),[5]; 3333 nM,80% and 82% and 75%
same,Huh7 cell survival (%),[5]; 10000 nM,89% and 92% and 82%
same,IC50,[5]; Huh7 cells,0.287 ± 0.0618 µM
same,U-87 MG cell survival (%),[6]; 5 nM,100% and 105% and 103%
same,U-87 MG cell survival (%),[6]; 14 nM,95% and 97%
same,U-87 MG cell survival (%),[6]; 41 nM,89% and 93%
same,U-87 MG cell survival (%),[6]; 123 nM,89%
same,U-87 MG cell survival (%),[6]; 370 nM,87% and 91% and 85%
same,U-87 MG cell survival (%),[6]; 1111 nM,87% and 90% and 84%
same,U-87 MG cell survival (%),[6]; 3333 nM,87% and 89% and 84%
same,U-87 MG cell survival (%),[6]; 10000 nM,89% and 90% and 88%
same,IC50,[6]; U-87 MG cells,> 10 µM
same,IC50,[7],102 ± 2 µM
same,IC50,[8],74.6 ± 63 µM
same,IC50,[9],73.7 ± 19 µM
same,IC50,[10],54.5 ± 4.4 µM
same,IC50,[11],45 µM and 44.5 µM
same,IC50,[12],42 µM
CNC(=O)c1cc(Oc2ccc(NC(=O)Nc3ccc(Cl)c(C(F)(F)F)c3)cc2)ccn1 [Sorafenib],liver size vs DMSO treated control,[13],significantly reduce liver size
